Test results as given in US12371416B2, “Compounds for inhibition of fibroblast activation protein” (USTAV ORGANICKE CHEMIE A BIOCHEMIE AV CR, V. V. I., priority 2020, dated 2025).

Tests used:
Assay type in all cases: cell-based, human
Conditions in all cases: 72 h
HepG2 = assay: Cytotoxicity (XTT) on HepG2 cells
Description: (§1) The cytotoxicity of the substances was measured on four tumour cell lines: CCRF-CEM, HepG2, Hela, HL-60. All cell lines were purchased from ATCC (Manassas, VA, USA). Cells were cultured in RPMI-1640 or DMEM medium containing 10% (wt/wt) FBS and 1% (wt/wt) GlutaMax. Cells were distributed at 2,000-10,000 per well of a 384-well plate (Thermo Fisher Scientific, Waltham, USA) and incubated overnight. After 24 hours, test substance solutions (10 or 100 μmol·l^−1) were added to the wells and the cells were incubated with the test substances at 37° C. and 5% (vol./vol.) CO2 for another 72 h. XTT dye (XTT cell proliferation kit II, Roche Diagnostics GmbH, Mannheim, Germany) was added to the wells according to the manufacturer's protocol. After one hour of incubation with the dye, the absorbance at 495 nm was measured and the signal was compared with the control (100% viability=cells without test substance).

HL-60 = assay: Cytotoxicity (XTT) on HL-60 cells
Description: as §1

Hela = assay: Cytotoxicity (XTT) on Hela cells
Description: as §1

CCRF-CEM = assay: Cytotoxicity (XTT) on CCRF-CEM cells
Description: as §1

Structure (SMILES)	Cell viability HepG2 10 μM (HepG2) [% vs. control]	Cell viability HepG2 100 μM (HepG2) [% vs. control]	Cell viability HL60 10 μM (HL-60) [% vs. control]	Cell viability HL60 100 μM (HL-60) [% vs. control]	Cell viability HeLa S3 10 μM (Hela) [% vs. control]	Cell viability HeLa S3 100 μM (Hela) [% vs. control]	Cell viability CEM 10 μM (CCRF-CEM) [% vs. control]	Cell viability CEM 100 μM (CCRF-CEM) [% vs. control]
O=C(CNC(=O)C(=O)[C@@H]1CCCN1C(=O)CNC(=O)c1ccnc2ccccc12)NCc1ccccc1 [Compound 5d, (S)—N-(2-(2-(2-((2-(Benzylamino)-2-oxoethyl)amino)-2-oxoacetyl)pyrrolidin-1-yl)-2-oxoethyl)quinoline-4-carboxamide]	82	89	112	95	95	96	89	107
COC(=O)[C@H](CCC(N)=O)NC(=O)CNC(=O)C(=O)[C@@H]1CCCN1C(=O)CNC(=O)c1ccnc2ccccc12 [Compound 5g, Methyl (2-oxo-2-((S)-1-((quinoline-4-carbonyl)glycyl)pyrrolidin-2-yl)acetyl)glycyl-L-glutaminate]	102	108	88	103	109	99	114	101
O=C(NCC(=O)N1CCCC1)C(=O)[C@@H]1CCCN1C(=O)CNC(=O)c1ccnc2ccccc12 [Compound 5b]	83	106	111	86	93	101	90	109
CC(C)NC(=O)CNC(=O)C(=O)[C@@H]1CCCN1C(=O)CNC(=O)c1ccnc2ccccc12 [Compound 5c, (S)—N-(2-(2-(2-((2-(Isopropylamino)-2-oxoethyl)amino)-2-oxoacetyl)pyrrolidin-1-yl)-2-oxoethyl)quinoline-4-carboxamide]	96	108	86	89	119	99	113	108
CC(C)NC(=O)C(=O)[C@@H]1CCCN1C(=O)CNC(=O)c1ccnc2ccccc12 [Compound 3i, (S)—N-(2-(2-(2-(Isopropylamino)-2-oxoacetyl)pyrrolidin-1-yl)-2-oxoethyl)quinoline-4-carboxamide]	87	110	111	100	78	105	93	117
COC(=O)c1ccc(NC(=O)C(=O)[C@@H]2CCCN2C(=O)CNC(=O)c2ccnc3ccccc23)cc1 [Compound 3g, Methyl (S)-4-(2-oxo-2-(1-((quinoline-4-carbonyl)glycyl)pyrrolidin-2-yl)acetamido)benzoate]	93	63	100	103	98	89	106	73
COC(=O)CNC(=O)C(=O)[C@@H]1CCCN1C(=O)CNC(=O)c1ccnc2ccccc12 [Compound 3k, Methyl (S)-(2-oxo-2-(1-((quinoline-4-carbonyl)glycyl)pyrrolidin-2-yl)acetyl)glycinate]	109	105	112	103	104	94	110	123
COc1ccc(NC(=O)C(=O)[C@@H]2CCCN2C(=O)CNC(=O)c2ccnc3ccccc23)cc1 [Compound 3f, (S)—N-(2-(2-(2-((4-Methoxyphenyl)amino)-2-oxoacetyl)pyrrolidin-1-yl)-2-oxoethyl)quinoline-4-carboxamide]	95	82	110	108	103	94	92	84
COC(=O)[C@H](CC(C)C)NC(=O)CNC(=O)C(=O)[C@@H]1CCCN1C(=O)CNC(=O)c1ccnc2ccccc12 [Compound 5e, Methyl (2-oxo-2-((S)-1-((quinoline-4-carbonyl)glycyl)pyrrolidin-2-yl)acetyl)glycyl-L-leucinate]	75	110	112	83	99	106	96	104
O=C(NCCc1ccccc1)C(=O)[C@@H]1CCCN1C(=O)CNC(=O)c1ccnc2ccccc12 [Compound 3d, (S)—N-(2-Oxo-2-(2-(2-oxo-2-(phenethylamino)acetyl)pyrrolidin-1-yl)ethyl)quinoline-4-carboxamide]	88	89	110	107	86	81	105	85
CN(C)C(=O)CNC(=O)C(=O)[C@@H]1CCCN1C(=O)CNC(=O)c1ccnc2ccccc12 [Compound 5a, (S)—N-(2-(2-(2-((2-(Dimethylamino)-2-oxoethyl)amino)-2-oxoacetyl)pyrrolidin-1-yl)-2-oxoethyl)quinoline-4-carboxamide]	91	104	105	76	92	102	104	100
O=C(NC1CC1)C(=O)[C@@H]1CCCN1C(=O)CNC(=O)c1ccnc2ccccc12 [Compound 3h, (S)—N-(2-(2-(2-(Cyclopropylamino)-2-oxoacetyl)pyrrolidin-1-yl)-2-oxoethyl)quinoline-4-carboxamide]	88	108	110	95	89	103	94	115
COC(=O)C(C)NC(=O)C(=O)[C@@H]1CCCN1C(=O)CNC(=O)c1ccnc2ccccc12 (mixture of isomers) [Compound 3m, Methyl (2-oxo-2-((S)-1-((quinoline-4-carbonyl)glycyl)pyrrolidin-2-yl)acetyl)alaninate]	91	105	102	124	108	104	97	120
